The values that follow come from ChEMBL document CHEMBL1201862, “PubChem BioAssay data set” (2004).

Some test systems named below: NCI-H460; ACHN; NCI-H522; HCT-15; HL-60; SK-MEL-5; NCI-H23; TK-10; UACC-62; IGROV-1; SW-620; HCT-116; EKVX; OVCAR-4; NCI/ADR-RES; BT-549; Malme-3M; SNB-75; KM12.
Common to all, as to assay: NCI-60 cell line screen, 48 h

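Test compounds were applied to cells in 96-well plates for 48 hours at 5 doses. GI50: concentration for 50% inhibition of growth.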 The source made the active and inactive calls. Cut-off read from the data, not from the text of the source: active = GI50 up to about 1.1 µM and inactive = higher.

For `Cc1ccc(S(=O)(=O)OCC(=O)O)cc1`, the GI50 is > 100 µM (inactive) in the test on NCI-H460; > 100 µM (inactive) with ACHN; > 100 µM (inactive) in the test on NCI-H522; over 100 µM in the test on HCT-15; > 100 µM (inactive) with HL-60; > 100 µM (inactive) in the test with SK-MEL-5. Besides, the GI50 in the test on NCI-H23, in the test on TK-10, in the test with UACC-62, in the test on IGROV-1, with SW-620 and with HCT-116 was > 100 µM (inactive) in each case. In addition, the GI50 in the test with EKVX, in the test on OVCAR-4, with NCI/ADR-RES, in the test with BT-549 and in the test with Malme-3M was > 100 µM (inactive) each time.
`CCCCCCCCCCCCN1[C@H]2CCC[C@H]2C(O)[C@@H]2CCC[C@@H]21` (stereo partly specified): the GI50 in the test with SNB-75 was > 100 µM (inactive); in the test on NCI-H460, > 100 µM (inactive); with ACHN, > 100 µM (inactive); in the test on HCT-15 it was 56.4 µM; with KM12 it was 68.2 µM (inactive); in the test with HL-60 it was 33.8 µM (inactive). Moreover, the GI50 with SK-MEL-5 was 58.2 µM (inactive); with NCI-H23, 42.6 µM (inactive); with UACC-62, > 100 µM (inactive); in the test with IGROV-1 it was 98.9 µM (inactive); in the test on SW-620 it was > 100 µM (inactive); with HCT-116, 53.8 µM (inactive). Further, the GI50 with OVCAR-4 was > 100 µM (inactive); with NCI/ADR-RES it was > 100 µM (inactive); in the test on BT-549, 42.3 µM (inactive).
As to `C[C@@H]1CC(=O)C[C@@H]2CC[C@H]3[C@@H]4CC[C@H](OC(=O)c5cccc6cc7ccccc7nc56)[C@H]4CC[C@@H]3[C@H]21`, the GI50 is 15.6 µM (inactive) in the test on SNB-75; 14.1 µM (inactive) with NCI-H460; 15.7 µM (inactive) in the test with ACHN; 5.6 µM (inactive) in the test with NCI-H522; 14.2 µM in the test with HCT-15; 14.3 µM (inactive) in the test on KM12. In addition, the GI50 in the test with SK-MEL-5 was 13.2 µM (inactive); in the test on NCI-H23, 14.7 µM (inactive); in the test on TK-10 it was 27.9 µM (inactive); with UACC-62 it was 13.3 µM (inactive); in the test on IGROV-1 it was 3.89 µM (inactive); in the test on SW-620, 17.4 µM (inactive). Further, the GI50 is 14.1 µM (inactive) in the test with HCT-116; 16.7 µM (inactive) in the test with EKVX; 13.6 µM (inactive) in the test with OVCAR-4; 20.9 µM (inactive) in the test with NCI/ADR-RES; 26.1 µM (inactive) with BT-549; 8.71 µM (inactive) in the test with Malme-3M.
As to `Cc1c(NC(=S)N/N=C\C(=N/NC(=S)Nc2c(C)n(C)n(-c3ccccc3)c2=O)c2ccccc2)c(=O)n(-c2ccccc2)n1C`, the GI50 is > 100 µM (inactive) in the test with SNB-75; > 100 µM (inactive) in the test with NCI-H460; > 100 µM (inactive) in the test with ACHN; over 100 µM with HCT-15; > 100 µM (inactive) in the test with KM12; > 100 µM (inactive) in the test with SK-MEL-5. The GI50 in the test with NCI-H23, with TK-10, in the test on UACC-62, with SW-620, in the test with HCT-116 and in the test with EKVX was > 100 µM (inactive) each time. Further, the GI50 in the test with OVCAR-4 was > 100 µM (inactive); in the test on NCI/ADR-RES, > 100 µM (inactive); in the test with BT-549, > 100 µM (inactive); in the test on Malme-3M, 87.1 µM (inactive).
